Source: article PMC11671014 (PLOS Pathogens, 2024)
Like-named read-outs stand apart in the source and are kept apart here.

Tests used:
[1] = molecular target: T1, HsTyrRS (Homo sapiens, UniProt P54577); assay: Differential scanning fluorimetry (DSF) of HsTyrRS; format: binding; conditions: for thermal stabilisation of recombinant HsTyrRS (in words): with all substrates; for HsTyrRS Tm: with sulfamate, tyrosine and tRNA, apo 49.0 ± 0.2
T1 sequence (P54577 1-528): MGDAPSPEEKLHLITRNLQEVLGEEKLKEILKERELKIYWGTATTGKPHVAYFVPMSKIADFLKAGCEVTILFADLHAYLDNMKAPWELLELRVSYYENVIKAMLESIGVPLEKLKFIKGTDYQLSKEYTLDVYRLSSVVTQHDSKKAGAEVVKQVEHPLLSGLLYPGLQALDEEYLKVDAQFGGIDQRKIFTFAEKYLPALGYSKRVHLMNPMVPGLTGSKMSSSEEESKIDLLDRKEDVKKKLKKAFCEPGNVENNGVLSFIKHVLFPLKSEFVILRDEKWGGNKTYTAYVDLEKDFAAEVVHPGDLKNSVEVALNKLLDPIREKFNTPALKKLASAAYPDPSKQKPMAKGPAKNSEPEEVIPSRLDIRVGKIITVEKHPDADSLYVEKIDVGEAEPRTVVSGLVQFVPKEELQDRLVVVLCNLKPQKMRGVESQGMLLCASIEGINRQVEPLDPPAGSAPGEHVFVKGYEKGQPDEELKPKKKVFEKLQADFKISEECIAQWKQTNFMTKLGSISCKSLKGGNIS
Procedure: The effect on ML471 and analogues on the thermal stability of TyrRS enzymes was assayed as previously described. […] SYPRO Orange (Sigma-Aldrich; 5,000X concentrate in DMSO) was added to the reaction mixture at a final concentration of 5X. 25 μL of the sample was added into each well of a 96-well qPCR plate (Applied Biosystems). The plate was sealed and analysed using StepOnePlus Real-Time PCR system (Applied Biosystems). The samples were heated from 20°C to 90°C with a 1% continuous gradient. The thermal unfolding curve was plotted as the first derivative curve of the raw fluorescence values. The melting temperature (Tm), defined as the peak of the first derivative curve, was used to assess the thermal stability of protein-ligand complexes.

[2] = tested on: Pf3D7-pfs16-CBG99 gametocytes, immature (stage II/III) and mature (stage V); assay: Gametocyte killing assay (luciferase); format: cell-based; conditions: Plasmodium falciparum, 48 h
Procedure: Gametocytogenesis was induced on a tightly synchronised (>97% rings) asexual parasite culture (Pf3D7-pfs16-CBG99 (kind gift from Pietro Alano), 0.5% parasitemia and 6% hematocrit) with a combination of nutrient starvation and a decrease in hematocrit, as previously described. For immature gametocytes (>90% stage II/III), cultures were exposed to 50 mM N-acetyl glucosamine (NAG) on days 1–4 to eliminate residual asexual parasites and harvested at days 5–6. For mature (>95% stage V) gametocytes, NAG treatment occurred from days 3–7 and harvest at day 13. Stage II/III and V gametocyte cultures (2 % gametocytaemia 1.5 % haematocrit, 150 μL/well) were exposed to compounds and incubated at 37°C for 48 h under hypoxic conditions, after which luciferase activity was determined with a non-lysing D-luciferin substrate (1mM in 0.1M citrate buffer, pH 5.5, 100 μL) and bioluminescence was detected with a 2 s integration time with a GloMax-Multi Detection System with Instinct software.

[3] = tested on: P. falciparum liver stage schizont (NF135); assay: Liver stage schizont assay in primary human hepatocytes (NF135); format: cell-based; conditions: Plasmodium falciparum, Hepatocyte, 96 h, four days
Procedure: (§1) Activity against liver stage parasites was performed using a modification of published procedures. Briefly, cryopreserved human primary hepatocytes (NF175: H1500.H15B+ Lot No. HC0-6, TebuBio or NF135: F00995-P Lot No. IRZ, BioIVT) were thawed and seeded at 18,000 cells per well in collagen-coated 384-well microtiter plates in medium containing 10% heat inactivated fetal bovine serum (hiFBS). Cells were cultured at 37°C in 5% CO2. For NF175, medium was replaced by fresh medium containing 10% hiFBS, 5 h post plating. For NF135, medium was replaced by medium containing 0.2% BSA, 24 h post plating. 48 h post plating, salivary glands from Plasmodium-NF175 or NF135-infected Anopheles stephensi mosquitoes were dissected, added to the hepatocytes (10,000 per well/ NF175; or 12,500 per well/ NF135) and allowed to infect for 3 hours. Sporozoites were then aspirated, and compounds diluted in medium containing 10% hiFBS or 0.2% BSA, were added to the hepatocytes. Medium containing 10% hiFBS or 0.2% BSA and compounds was refreshed daily for four days. Hepatocytes were fixed with ice-cold methanol and samples were blocked with 10% hiFBS in PBS. Schizonts were stained with rabbit anti-HSP70 in 10% hiFBS for 1–2 h followed by incubation with a mixture of secondary goat anti-rabbit AlexaFluor 594 antibody and 4′,6-diamidine-2′-phenylindole dihydrochloride (DAPI) in 10% hiFBS for 30 min. Samples were washed with PBS containing 0.05% Tween 20 between different steps. Cells were imaged on a PicoExpress high content imager, and images were analysed automatically using CellReporterXpress software. Data were analysed by logistic regression using a four-parameter (Hill equation) model and a least-squares method to find the best fit.

[4] = tested on: Primary hepatocytes; assay: Toxicity to primary hepatocyte host cells in the liver stage assay; format: cell-based, human; conditions: for IC50: Homo sapiens, Hepatocyte
Procedure: as §1

[5] = tested on: Dd2-B2 parasites; assay: Minimum inoculum of resistance (MIR) selection; format: cell-based, Plasmodium falciparum; conditions: for IC50: DD2, read-out: in-house mean IC50; for IC50 fold shift (clones): 3 x IC50
Procedure: MIR studies were conducted for ML901 and ML471 using a modified “Gate keeper assay” [34]. […] For ML901, the parasites (starting parasite inoculums of 1x10^7 or 1x10^8 in triplicate) were subjected to pressure at 3 x IC50, with recrudescence on days 12–14. […] The different pressure regimens reflect the standard protocols in the Fidock lab used at the times of analysis. Wells were monitored daily by smear during the first seven days to ensure parasite clearance, during which media was changed daily. Thereafter, cultures were screened three times weekly by flow cytometry and smearing, and the selection maintained a consistent drug pressure over 60 days. […] Whole-genome sequencing analysis identified CNVs in chromosome 8 segments, always containing the PfTyrRS locus, consistent with our earlier evidence of this as the target of ML901 [16]. Single nucleotide polymorphism (SNP) filtering was lowered to 0.5 allelic balance (AB) but yielded no point mutations in the core genome.

[6] = tested on: P. falciparum liver stage schizont (NF175); design: method as in ref [1] Xie et al., Science 2022; conditions: ref [1] Xie et al., Science 2022; cited from earlier work
[7] = read-out: Early stage gametocytes IC50
[8] = read-out: Mature stage gametocytes IC50
[9] = host cells of the NF135 experiment
[10] = host cells of the NF175 experiment

SMILES | ΔTm at 200 µM ([1]; 200 μM sulfamate, ATP, tyrosine, yeast tRNA, 37°C 4 h, read-out: HsTyrRS binding (DSF) Delta Tm) [°C] | thermal stabilisation of recombinant HsTyrRS (in words) [1] | HsTyrRS Tm ([1]; ATP) [°C] | IC50 [2, 7] [µM] | IC50 [2, 8] [µM] | IC50 [3] [µM] | toxicity against the primary hepatocyte host cells (in words) [4] | IC50 [4, 9] [µM] | IC50 [4, 10] [µM] | IC50 ([5]; Plasmodium falciparum) [µM] | IC90 ([5]; Plasmodium falciparum, DD2, read-out: mean IC90) [µM] | IC50 shift ([5]; selection with 2x10^5 parasites, 10 x IC50) | IC50 [6] [µM] | HsTyrRS binding (DSF) Delta Tm ([1]; 200 μM sulfamate, ATP, tyrosine, yeast tRNA, 37°C 4 h) [°C] | IC50 fold shift (clones) ([5]; selection with 10^7 parasites) | IC50 fold shift (clones) ([5]; selection with 10^8 parasites)
CC(C)c1nn([C@@H]2O[C@H](COS(N)(=O)=O)[C@@H](O)[C@H]2O)c2ncnc(N)c12 [ML471, ((2R,3S,4R,5R)-5-(4-amino-3-isopropyl-1H-pyrazolo[3,4-d]pyrimidin-1-yl)-3,4-dihydroxytetrahydrofuran-2-yl)methyl sulfamate] | 0.06 ± 0.04 | not stabilised | 49.0 ± 0.2 | 0.112 | 0.392 | 0.0055 | no toxicity | > 0.1 | > 10 | 0.00145 | 0.00199 | 9-16 xIC50 | – | – | – | –
Nc1ncnc2c1c(OC(F)F)nn2[C@@H]1O[C@H](COS(N)(=O)=O)[C@@H](O)[C@H]1O [ML901] | – | not stabilised | 49.4 ± 0.1 | 0.31 ± 0.06 | 1.66 ± 0.14 | 0.0029 ± 0.0009 | – | > 0.1 | > 10 | 0.0026 ± 5e-05 | – | – | 0.013 ± 0.005 | 0.4 ± 0.1 | 2-3 x IC50 | 3-6 x IC50
